Reference: PubChem BioAssay AID1963856 (Molecular Pharmacology Branch, DTP, NCI, 2024)
“And” between values parts separate entries of the source, which are not always exact repeats. Equal entries are not always repeated. The source made the active and inactive calls. The calls were made as follows: active = viability on the fitted dose curve at most 10% of control; inactive = the rest.

Tested on: LG0567-F671-PDC KRAS tumor spheroid viability
Assay: Anticancer human tumor LG0567-F671-PDC patient-derived lung adenocarcinoma cell line growth inhibition [KRAS2]
Settings: spheroids with HUVEC and MSC; for viability, T/C: stronger effect = lower value
Summary of the method: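 Combination screen of spheroid viability in tumor-cell co-cultures with endothelial (HUVEC) and mesenchymal stem cell stroma. Each agent was tested in half-log dilutions, topping at clinical Cmax or at 10 microM without a known Cmax.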

[1] = curve of first compound, second compound 0.1 µM
[2] = curve of first compound, second compound 0.316 µM
[3] = curve of first compound, second compound 1 µM
[4] = curve of first compound, second compound 3.16 µM
[5] = curve of first compound, second compound 10 µM
[6] = second compound 0.1 µM, first compound 0.0316 µM
[7] = second compound 0.1 µM, first compound 0.1 µM
[8] = second compound 0.316 µM, first compound 0.0316 µM
[9] = second compound 0.316 µM, first compound 0.1 µM
[10] = second compound 1 µM, first compound 0.0316 µM
[11] = second compound 1 µM, first compound 0.1 µM
[12] = second compound 3.16 µM, first compound 0.0316 µM
[13] = second compound 3.16 µM, first compound 0.1 µM
[14] = second compound 10 µM, first compound 0.0316 µM
[15] = second compound 10 µM, first compound 0.1 µM
[16] = second compound 0.1 µM, first compound 0.316 µM
[17] = second compound 0.1 µM, first compound 1 µM
[18] = second compound 0.1 µM, first compound 3.16 µM
[19] = second compound 0.1 µM, first compound 10 µM
[20] = second compound 0.316 µM, first compound 0.316 µM
[21] = second compound 0.316 µM, first compound 1 µM
[22] = second compound 0.316 µM, first compound 3.16 µM
[23] = second compound 0.316 µM, first compound 10 µM
[24] = second compound 1 µM, first compound 0.316 µM
[25] = second compound 1 µM, first compound 1 µM
[26] = second compound 1 µM, first compound 3.16 µM
[27] = second compound 1 µM, first compound 10 µM
[28] = second compound 3.16 µM, first compound 0.316 µM
[29] = second compound 3.16 µM, first compound 1 µM
[30] = second compound 3.16 µM, first compound 3.16 µM
[31] = second compound 3.16 µM, first compound 10 µM
[32] = second compound 10 µM, first compound 0.316 µM
[33] = second compound 10 µM, first compound 1 µM
[34] = second compound 10 µM, first compound 3.16 µM
[35] = second compound 10 µM, first compound 10 µM
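For IC50 in this document: drug exposure lasted seven days after spheroids formed for three days.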
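For viability, T/C in this document: drug exposure lasted seven days after spheroids formed for three days; 100% = DMSO vehicle control viability.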

CN(C)C/C=C/C(=O)Nc1cc2c(Nc3ccc(F)c(Cl)c3)ncnc2cc1O[C@H]1CCOC1 + CC1OCC2(CCN(c3cnc(Sc4ccnc(N)c4Cl)c(N)n3)CC2)C1N
< 0.316 nM: IC50 [2] | IC50 [4] | IC50 [5]
4.99 nM: IC50 [1]
inactive: viability, T/C (second compound 0.1 µM, first compound 0.000316 µM) 55.9% | viability, T/C (second compound 0.1 µM, first compound 0.001 µM) 51.9% | viability, T/C (second compound 0.1 µM, first compound 0.00316 µM) 50.8% | viability, T/C (second compound 0.1 µM, first compound 0.01 µM) 52.2% | viability, T/C [6] 43.3% | viability, T/C [7] 49.4% | viability, T/C (second compound 0.316 µM, first compound 0.000316 µM) 44.1% | viability, T/C (second compound 0.316 µM, first compound 0.001 µM) 40.5% | viability, T/C (second compound 0.316 µM, first compound 0.00316 µM) 43.1% | viability, T/C (second compound 0.316 µM, first compound 0.01 µM) 30.6% | viability, T/C [8] 29.9% | viability, T/C [9] 32.7% | viability, T/C (second compound 1 µM, first compound 0.000316 µM) 106% | viability, T/C (second compound 1 µM, first compound 0.001 µM) 84.5% | viability, T/C (second compound 1 µM, first compound 0.00316 µM) 96.2% | viability, T/C (second compound 1 µM, first compound 0.01 µM) 78.9% | viability, T/C [10] 59% | viability, T/C [11] 69.3% | viability, T/C (second compound 3.16 µM, first compound 0.000316 µM) 19.9% | viability, T/C (second compound 3.16 µM, first compound 0.001 µM) 15.2% | viability, T/C (second compound 3.16 µM, first compound 0.00316 µM) 16.2% | viability, T/C (second compound 3.16 µM, first compound 0.01 µM) 21.2% | viability, T/C [12] 18.4% | viability, T/C [13] 21.6% | outcome (second compound 10 µM, first compound 0.000316 µM) | outcome (second compound 10 µM, first compound 0.001 µM) | viability, T/C (second compound 10 µM, first compound 0.00316 µM) 15.9% | outcome (second compound 10 µM, first compound 0.01 µM) | viability, T/C [14] 13.4% | viability, T/C [15] 12.9%
> 100 nM: IC50 [3]

CC1OCC2(CCN(c3cnc(Sc4ccnc(N)c4Cl)c(N)n3)CC2)C1N (configuration not stated) + CNCc1ccccc1-c1csc(C(C)Nc2nc(C)nc3cc(OC)c(OC)cc23)c1
221 nM: IC50 [4]
active: viability, T/C [30] 3.22% | viability, T/C [31] 3.6% | viability, T/C [14] 0.2% | viability, T/C [15] 0.17% | viability, T/C [32] 0.16% | viability, T/C [33] 0.14% | viability, T/C [34] 0.13% | viability, T/C [35] 0.2%
53.3 nM: IC50 [2]
inactive: viability, T/C [6] 60.4% | viability, T/C [7] 44.5% | viability, T/C [16] 33.3% | viability, T/C [17] 28.6% | viability, T/C [18] 23.6% | viability, T/C [19] 17.7% | viability, T/C [8] 57.1% | viability, T/C [9] 41.6% | viability, T/C [20] 30% | viability, T/C [21] 23.3% | viability, T/C [22] 22.1% | viability, T/C [23] 14.6% | viability, T/C [10] 61.5% | viability, T/C [11] 43.4% | viability, T/C [24] 38.4% | viability, T/C [25] 24.8% | viability, T/C [26] 18.1% | viability, T/C [27] 13.5% | viability, T/C [12] 79.2% | viability, T/C [13] 65.7% | viability, T/C [28] 43.8% | viability, T/C [29] 13.4%
68.1 nM: IC50 [1]
75 nM: IC50 [3]
< 31.6 nM: IC50 [5]

O=C(c1cc(Cc2n[nH]c(=O)c3ccccc23)ccc1F)N1CCN(C(=O)C2CC2)CC1 + COc1cc2nc(C)nc(NC(C)c3cc(N)cc(C(F)(F)F)c3)c2cc1OC1CCOC1
> 10000 nM: IC50 [1] | IC50 [2] | IC50 [3] | IC50 [4] | IC50 [5]
inactive: viability, T/C [6] 84.3% | viability, T/C [7] 108% | viability, T/C [16] 81.8% | viability, T/C [17] 109% | viability, T/C [18] 96.8% | viability, T/C [19] 70.3% | viability, T/C [8] 68.5% | viability, T/C [9] 58.5% | viability, T/C [20] 67.8% | viability, T/C [21] 64% | viability, T/C [22] 57.4% | viability, T/C [23] 70.5% | viability, T/C [10] 102% | viability, T/C [11] 117% | viability, T/C [24] 98% | viability, T/C [25] 94.1% | viability, T/C [26] 95% | viability, T/C [27] 81.5% | viability, T/C [12] 69.3% | viability, T/C [13] 68.7% | viability, T/C [28] 72.8% | viability, T/C [29] 63% | viability, T/C [30] 68.8% | viability, T/C [31] 61.5% | viability, T/C [14] 78.7% | viability, T/C [15] 63.2% | viability, T/C [32] 68% | viability, T/C [33] 63.2% | viability, T/C [34] 53.1% | viability, T/C [35] 56.1%

COC(=O)c1ccc2c(C(=Nc3ccc(N(C)C(=O)CN4CCN(C)CC4)cc3)c3ccccc3)c(O)[nH]c2c1
> 10000 nM: IC50 (curve of compound)
inactive: viability, T/C (compound 0.1 µM) 91% [middle of 5 runs] | viability, T/C (compound 1 µM) 90.2% [middle of 5 runs] | viability, T/C (compound 3.16 µM) 93% [middle of 5 runs] | viability, T/C (compound 10 µM) 94.1% [middle of 5 runs]

CC1OCC2(CCN(c3cnc(Sc4ccnc(N)c4Cl)c(N)n3)CC2)C1N (configuration not stated)
134 nM [middle of 6 runs]: IC50 (compound alone, run of 07/26/2021)
inactive: viability, T/C (compound 0.0316 µM) 81.9% and 81.1% and 73.7% | viability, T/C (compound 0.1 µM) 56.3% [middle of 20 runs] | viability, T/C (compound 0.316 µM) 38.5% [middle of 20 runs] | viability, T/C (compound 3.16 µM) 21.6% [middle of 20 runs]
15.5% [middle of 19 runs]: viability, T/C (compound 10 µM)
163 nM [middle of 5 runs]: IC50 (curve of compound)

COc1cc2nccc(Oc3ccc(NC(=O)C4(C(=O)Nc5ccc(F)cc5)CC4)cc3)c2cc1OC + C=CC(=O)N1CCN(c2nc(OCC3CCCN3C)nc3c2CCN(c2cccc4cccc(C)c24)C3)CC1CC#N
active: viability, T/C [29] 17.6% | viability, T/C [30] 1.46% | viability, T/C [31] 1.76%
inactive: viability, T/C (second compound 0.0316 µM, first compound 0.0316 µM) 27% | viability, T/C (second compound 0.0316 µM, first compound 0.1 µM) 35.9% | viability, T/C (second compound 0.0316 µM, first compound 0.316 µM) 23.9% | viability, T/C (second compound 0.0316 µM, first compound 1 µM) 20.4% | viability, T/C (second compound 0.0316 µM, first compound 3.16 µM) 17.8% | viability, T/C (second compound 0.0316 µM, first compound 10 µM) 52.5% | viability, T/C [6] 23.5% | viability, T/C [7] 22.9% | viability, T/C [16] 26.6% | viability, T/C [17] 18.4% | viability, T/C [18] 10.2% | viability, T/C [19] 45.3% | viability, T/C [8] 25.2% | viability, T/C [9] 24.8% | viability, T/C [20] 28.4% | viability, T/C [21] 17.2% | viability, T/C [22] 10.2% | viability, T/C [23] 41.3% | viability, T/C [10] 30.9% | viability, T/C [11] 27.6% | viability, T/C [24] 23.7% | viability, T/C [25] 20.9% | viability, T/C [26] 13.3% | viability, T/C [27] 33% | viability, T/C [12] 13.2% | viability, T/C [13] 18.7% | viability, T/C [28] 11.4%
< 31.6 nM: IC50 (curve of first compound, second compound 0.0316 µM) | IC50 [1] | IC50 [2] | IC50 [3] | IC50 [4]
